Patent publication US9326971B2, “4-methylpyrazole formulations for inhibiting ethanol intolerance” (Raptor Pharmaceuticals Inc., priority 2004, dated 2016)
Like-named read-outs stand apart in the source and are kept apart here.

Experiments:
[1] = test system: serum acetaldehyde concentration; test: Blinded, intra-subject controlled single dose study: serum acetaldehyde after oral 4-MP and ethanol in ethanol-intolerant subjects genotyped for ALDH2 and ADH2; assay type: in vivo, human
Procedure: A blinded, intra-subject controlled, single dose, dose escalation study of 4-MP for mitigation of acetaldehyde related toxicity in subjects with symptoms of inborn altered ethanol metabolism with concomitant ethanol exposure was undertaken.
Twenty-four subjects (n=24) were randomly selected and orally administered 1 mg/kg, 3 mg/kg, or 5 mg/kg of 4-MP, followed 30 minutes later by an oral dose of 20% ethanol ([…]).
Using the same protocol, wherein 4-MP was replaced with placebo, each of the twenty-four randomly selected subjects served as its own control.
The twenty-four randomly selected subjects were then subjected to blood sampling, and the sampled blood analyzed for acetaldehyde levels at select time points following ethanol consumption.
For acetaldehyde analysis, blood samples were prepared by dilution with an internal standard (acetaldehyde-d4), with derivatization of acetaldehyde with dinitrophenyl hydrazine in hydrochloric acid, liquid-liquid portioning and solvent exchange. The derivatization forms an acetaldehyde-dinitrophenyl hydrazine (DNPH) derivative which dramatically increases the boiling point of the molecule and thus its relative stability compared to the acetaldehyde itself (Nagy et al., Rapid Communications in Mass Spectrometry 2004, 18, 2473-2478). The derivatized analytes were separated using a Jones Chromatography (Grace-Vydac), 50 mm×2.1 mm, 3 μm column held in an oven set at 28° C. Two mobile phases were used in a gradient consisting of 30:70 acetonitrile:water versus 90:10 acetonitrile:water with 0.1% formic acid. The derivatized analyte was detected on a High Performance Liquid Chromatograph equipped with a Mass Spectrometer (HPLC/MS/MS). Quantitation was performed using a linear regression curve fit of impurities standards with 1/x weighting, prepared from dilutions of acetaldehyde in water. Samples and standards were injected at 2 μL.
All […] subjects were then genotyped for ALDH2 and ADH2 at the Alcohol Research Center at Indiana University using (i) genomic DNA isolation and (ii) TaqMan assay for allelic discrimination. • i. Genomic DNA isolation: DNA was first isolated using the “HotSHOT” method for isolating PCR quality genomic DNA (Truett et al., Biotechniques 2000, 29(1), 52-54). Briefly, blood blotted on filter paper (3 mm circle) was placed in the well of a 96-well plate and mixed with 75 μL 25 mM NaOH/0.3 mM EDTA solution and heated to 95° C. for 40 minutes, followed by neutralization with 75 μL 40 mM Tris-HCl (pH 5) solution. 1-5 microliters were used for each PCR. • ii. TaqMan Assay for Allelic Discrimination: The allelic discrimination assay used a multiplexed (more than one primer/probe pair per reaction), end-point (data is collected at the end of the PCR process) assay. Each assay mix contained two different TaqMan probes (Applied BioSystems, Foster City, Calif.), labeled with VIC or FAM fluorescent reporter dye, which bound preferentially to one of the alleles. The genotype of each sample was determined by the fluorescence levels of the reporter dyes and was clustered on a graph with other samples of the same genotype. Each reaction contained 5 μL of 2×TaqMan Universal PCR Masternix, No AmpErase UNG, 3.75 μL of water, 0.25 μL of 40× Assay Mix, and 1 μL of DNA sample. Eight or eleven controls were included on each 96-well plate: two no template controls, two or three heterozygous samples, and two or three of each of the homozygous samples. Thermocycling was carried out in MJ Research PTC-200 thermocyclers. The PCR products were then analyzed in an ABI PRISM® 7300 Sequence Detection System (SDS) instrument. SDS Software 1.3.1 converted the raw data to pure dye components and plotted the results of the allelic discrimination on a scatter plot of Allele X versus Allele Y (e.g., ADH2*1 versus ADH2*2); each genotype appeared on the graph as a cluster of points. […]

ethanol elimination rate [2] = test: Percent reduction in ethanol elimination rate versus dose of 4-MP in human subjects (literature data, FIG. 2); assay type: in vivo; details: doses of 4 mg/kg 4-MP and less; from linear least squares fit of literature data (FIG. 2)
Excerpt: As used herein, “ethanol elimination rate” refers to the reduction in ethanol concentration in a subject's bloodstream over time after the subject has ingested ethanol. Typically, an ethanol elimination rate can be expressed in terms of millimole ethanol/kilogram subject body mass/hour. Techniques for blood sampling and analysis of ethanol levels in blood are well known to those of skill in the art. See, e.g., Inoue et al., Alcoholism: Clinical and Experimental Research 1984, 8, 319-322, incorporated herein by reference in its entirety. A “percent change in ethanol elimination rate,” can be calculated as follows:
[formula] where EtOH represents ethanol, and a number for a percent change in ethanol elimination that is less than 100 is a reduction in the percent change in EtOH elimination. Blood ethanol levels can also be calculated, for example, based on algorithms utilizing the amount of ethanol consumed by a subject, the subject's body mass, and time period since the consumption of ethanol, or, as another example, blood ethanol levels can be extrapolated from analysis of a subject's breath, and the like, as known to those of skill in the art. […]

ethanol elimination rate [3] = details: human subjects, cited from earlier work
[4] = all subjects with reduced or absent ALDH2 activity, 1, 3 or 5 mg/kg 4-MP
[5] = reduced ALDH2 activity, ADH2*1/ADH2*1 or ADH2*1/ADH2*2, 1 mg/kg 4-MP
[6] = reduced or absent ALDH2 activity, ADH2*2/ADH2*2, 1 mg/kg 4-MP

Cc1cn[nH]c1 [4-MP, 4-methylpyrazole]
Cmax mean and AUC0-8H mean of acetaldehyde concentration in the blood, versus absence of 4-MP (in words) [1, 4]: not significantly reduced | peak mean acetaldehyde concentration in the blood due to drinking ethanol (FIG. 5), versus placebo [1, 4]: not reduced | Cmax mean and AUC0-8H mean of acetaldehyde concentration in the blood, versus absence of 4-MP (in words) [1, 5]: significantly reduced | peak mean acetaldehyde concentration in the blood due to drinking ethanol (FIG. 3), versus placebo [1, 5]: can be reduced | Cmax mean and AUC0-8H mean of acetaldehyde concentration in the blood, versus absence of 4-MP (in words) [1, 6]: not significantly reduced | peak mean acetaldehyde concentration in the blood due to drinking ethanol (FIG. 4), versus placebo [1, 6]: not reduced | reduction in ethanol elimination (ethanol elimination rate [2]): less than 10% | reduction in EtOH elimination (ethanol elimination rate [3]; 6 mg 4-MP per kilogram body weight, Lindros et al. 1981): 20% | reduction in EtOH elimination (ethanol elimination rate [3]; 8.5 mg 4-MP per kilogram body weight, Inoue et al. 1985): 12% | reduction in EtOH elimination (ethanol elimination rate [3]; 10 mg 4-MP per kilogram body weight, Inoue et al. 1984): 20% | reduction in EtOH elimination (ethanol elimination rate [3]; 12.5 mg 4-MP per kilogram body weight, Sarkola et al. 2002): 34%
